Data on 18 molecules can be found in patent publication US7022707B2, “Piperazine derivatives” (Hoffman-La Roche Inc., priority 2000, dated 2006).

Series [1] concerns the target T1, 5-HT2C receptor (Homo sapiens, UniProt P28335).
T1 sequence (P28335 33-458): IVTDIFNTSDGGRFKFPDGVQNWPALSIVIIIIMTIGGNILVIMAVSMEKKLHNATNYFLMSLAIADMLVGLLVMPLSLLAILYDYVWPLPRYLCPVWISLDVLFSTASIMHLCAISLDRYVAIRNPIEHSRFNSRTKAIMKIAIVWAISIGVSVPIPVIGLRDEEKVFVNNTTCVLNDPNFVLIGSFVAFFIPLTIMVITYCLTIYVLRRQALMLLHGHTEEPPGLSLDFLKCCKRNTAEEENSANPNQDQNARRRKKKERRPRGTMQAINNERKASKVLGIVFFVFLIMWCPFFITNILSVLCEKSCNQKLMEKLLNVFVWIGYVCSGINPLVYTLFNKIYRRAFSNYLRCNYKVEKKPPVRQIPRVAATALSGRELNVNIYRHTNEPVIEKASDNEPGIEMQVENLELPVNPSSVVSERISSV
As to the kind of experiment: Functional activity, FLIPR calcium assay, CHO cells expressing human 5-HT2C. To be noted: for h5-HT2c Relative Efficacy: maximum fluorescent signal relative to 10 μM 5-HT (defined as 100%). The class given is cell-based. Also on record: expressed in transfected cells; host or cells: CHO cells. The protocol: (§1) The functional activity of compounds of formula (I) was assayed using a Fluorimetric Imaging Pate reader (FLIPR). CHO cells expressing the human 5-HT2C or human 5-HT2A receptors were counted and plated into standard 96 well microtitre plates on the day before testing to give a confluent monolayer. The cells were then dye loaded with the calcium sensitive dye, Fluo-3-AM. Unincorporated dye was removed using an automated cell washer to leave a total volume of 100 μL/well of assay buffer (Hanks balanced salt solution containing 20 mM Hepes and 2.5 mM probenecid). The drug (dissolved in 50 µL of the assay buffer) was added at a rate of 70 μL/sec to each well of the FLIPR 96 well plate during fluorescence measurements. The measurements were taken at 1 sec intervals and the maximum fluorescent signal was measured (approx 10–15 secs after drug addition) and compared with the response produced by 10 μM 5-HT (defined as 100%) to which it was expressed as a percentage response (relative efficacy). Dose response curves were constructed using Graphpad Prism (Graph Software Inc.).

In series [2] the target is T1, 5-HT2C receptor. Briefly: Binding to 5-HT2C receptor, [3H]-5-HT, Method (a). Details: expressed in transfected cells; host or cells: CHO cell line. The method, then:
(§2) The binding of compounds of formula (I) to serotonin receptors was determined in vitro by standard methods. The preparations were investigated in accordance with the assays given below.
Method (a): For the binding to the 5-HT2C receptor, the 5-HT2C receptors were radiolabeled with [^3H]-5-HT. The affinity of the compounds for 5-HT2C receptors in a CHO cell line was determined according to the procedure of D. Hoyer, G. Engel and H. O. Kalkman, European J. Pharmacol., 1985, 118, 13–23.
(§3) The Ki value is definied as an inhibition constance and is determined from the IC50 value as described in Cheng, Yung-Chi and Prusoff, W. H., Biochem. Pharmacol., 1973, 22(23), 3099–108.

For another series, the target named is T2, human 5-HT2B receptors (Homo sapiens, UniProt P41595).
T2 construct: expressed in transfected cells; host or cells: CHO cell line
T2 sequence (P41595 whole entry): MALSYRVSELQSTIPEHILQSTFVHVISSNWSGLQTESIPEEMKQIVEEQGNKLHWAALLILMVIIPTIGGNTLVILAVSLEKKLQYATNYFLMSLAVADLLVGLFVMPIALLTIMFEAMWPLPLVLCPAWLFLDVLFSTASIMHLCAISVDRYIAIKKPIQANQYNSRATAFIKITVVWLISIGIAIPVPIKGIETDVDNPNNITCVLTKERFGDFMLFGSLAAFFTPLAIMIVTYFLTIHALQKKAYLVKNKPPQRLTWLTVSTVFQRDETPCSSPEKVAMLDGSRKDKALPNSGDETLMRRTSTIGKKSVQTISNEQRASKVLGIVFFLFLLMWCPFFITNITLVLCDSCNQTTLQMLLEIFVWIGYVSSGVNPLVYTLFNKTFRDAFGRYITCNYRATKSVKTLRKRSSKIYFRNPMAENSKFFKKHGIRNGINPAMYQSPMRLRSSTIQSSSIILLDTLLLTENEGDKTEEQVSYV
Briefly: Binding to 5-HT2B receptor, [3H]-5-HT, Method (b). The method, then:
as §2
Method (b): For the binding to the 5-HT2B receptor, the 5-HT2B receptors were radiolabeled with [^3H]-5-HT. The affinity of the compounds for human 5-HT2B receptors in a CHO cell line was determined according to the procedure of K. Schmuck, C. Ullmer, P. Engels and H. Lubbert, FEBS Lett., 1994, 342, 85–90.
as §3

Series [3] concerns the target T3, 5-HT2A receptor (Homo sapiens, UniProt P28223). Briefly: Functional activity, FLIPR calcium assay, CHO cells expressing human 5-HT2A. Type of series: cell-based. Details: expressed in transfected cells; host or cells: CHO cells. To be noted: for h5-HT2A Relative Efficacy: maximum fluorescent signal relative to 10 μM 5-HT (defined as 100%). The protocol:
as §1

For series [4], the target named is T3, 5-HT2A receptor. Briefly: Binding to 5-HT2A receptor, [125I]-DOI, Method (c). Also on record: expressed in transfected cells; host or cells: CHO cell line. The method, then: as §2
Method (c): For the binding to the 5-HT2A receptor, the 5-HT2A receptors were radiolabeled with [^125I]-DOI. The affinity of the compounds for 5-HT2A receptors in a CHO cell line was determined according to the procedure of D. J. McKenna and S. J. Peroutka, J. Neurosci., 1989, 9, 3482–90.
as §3

A further series deals with rats. To be noted: literature; cited from earlier work.
The test system of series [5] is human volunteers and obese subjects. Conditions: literature, cited from earlier work.
[6] abbreviates: FLIPR, CHO cells, Fluo-3-AM, read-out: h5-HT2c EC50.
Where [7] appears, read: Method (a), [3H]-5-HT, CHO cell line, Ki calculated from IC50 (Cheng-Prusoff), read-out: Ki (2C).
Where [8] appears, read: Method (b), [3H]-5-HT, human 5-HT2B in CHO cell line, Ki calculated from IC50, read-out: Ki (2B).
The mark [9] stands for this setting: FLIPR, CHO cells, Fluo-3-AM, read-out: h5-HT2A EC50.
[10] abbreviates: Method (c), [125I]-DOI, CHO cell line, Ki calculated from IC50, read-out: Ki (2A).

Where a name gives a salt, the structure may show the parent alone. Read-outs that look alike come from different tables or passages of the source.

T3 sequence (P28223 whole entry): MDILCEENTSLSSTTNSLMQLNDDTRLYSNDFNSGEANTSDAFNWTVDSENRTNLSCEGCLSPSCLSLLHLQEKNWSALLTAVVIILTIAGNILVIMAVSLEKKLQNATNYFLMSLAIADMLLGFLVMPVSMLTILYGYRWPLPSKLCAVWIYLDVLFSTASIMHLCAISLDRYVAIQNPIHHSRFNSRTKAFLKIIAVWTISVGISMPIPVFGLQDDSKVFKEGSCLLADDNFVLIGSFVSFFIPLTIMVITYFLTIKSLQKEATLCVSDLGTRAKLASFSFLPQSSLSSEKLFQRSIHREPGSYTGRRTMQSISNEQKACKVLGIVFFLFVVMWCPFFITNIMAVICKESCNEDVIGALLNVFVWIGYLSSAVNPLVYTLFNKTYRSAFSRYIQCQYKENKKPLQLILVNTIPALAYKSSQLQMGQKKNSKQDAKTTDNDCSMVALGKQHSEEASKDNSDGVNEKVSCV

By melting point is commonly meant the temperature, or range, at which the solid turns liquid. In the case of `CCCOc1cc(F)c(COC(=O)N2CCNC[C@H]2C)c(F)c1.O=C(O)/C=C/C(=O)O`, the melting point was in the range of 193.9 to 194 °C.

`C[C@@H]1CNCCN1C(=O)OCc1ccc(OC(F)F)cc1.O=C(O)/C=C/C(=O)O` gave a melting point of 123.9 to 124.5 °C.

Consider `Cl.O=C(OCc1ccc(Br)cc1F)N1CCNCC1`, for which the melting point fell in the range of 209.5 to 209.6 °C.

In the case of `CCOc1ccc(F)c(COC(=O)N2[C@H](C)CNC[C@@H]2C)c1.O=C(O)/C=C/C(=O)O`, the melting point fell in the range of 142.9 to 143.3 °C.

On to `CCCOc1ccc(F)c(COC(=O)N2CCNCC2)c1.O=C(O)/C=C/C(=O)O`, for which the melting point lay in the range of 155.9 to 156.1 °C.

On to `CCCOc1ccc(F)c(COC(=O)N2CCNC[C@H]2C)c1.O=C(O)/C=C/C(=O)O`, for which the melting point is 162.6 to 162.7 °C.

Take `CCCCOc1ccc(F)c(COC(=O)N2CCNCC2)c1.O=C(O)/C=C/C(=O)O`: the melting point was 142.4 to 143.5 °C.

In the case of `CCCCOc1ccc(F)c(COC(=O)N2CCNC[C@H]2C)c1.O=C(O)/C=C/C(=O)O`, the melting point is 171.6 to 171.7 °C.

Consider `CCCCOc1ccc(F)c(COC(=O)N2[C@H](C)CNC[C@@H]2C)c1.O=C(O)/C=C/C(=O)O`, for which the melting point lay within 153.2 to 153.5 °C.

Regarding `CC(C)COc1ccc(F)c(COC(=O)N2[C@H](C)CNC[C@@H]2C)c1.O=C(O)/C=C/C(=O)O`, the melting point is 178.6 to 178.7 °C.

For the molecule `C[C@@H]1CNC[C@H](C)N1C(=O)OCc1c(F)ccc(Br)c1F.Cl`, the melting point lay in the range of 207 to 210 °C.

The molecule `Cl.O=C(SCc1ccc(OCc2ccc(F)cc2)cc1)N1CCNCC1` came in with a melting point of 169 to 169.5 °C.

Regarding `CCCOc1cc(F)c(COC(=O)N2CCNCC2CC)c(F)c1.O=C(O)/C=C/C(=O)O` (racemic), the melting point was 145 to 165 °C (dec.).

For orientation: EC50 means the midpoint of the concentration-response curve. A word on the Ki: it is a measure of affinity in units of concentration, obtained from inhibition or displacement. As to `Cl.O=C(OCc1ccc(OC(F)F)cc1)N1CCNCC1` [Example 22, Piperazine-1-carboxylic acid 4-difluoromethoxy-benzyl ester hydrochloride], the figures for the EC50 on 5-HT2C receptor [1] (setting [6]) and at 5-HT2A receptor [3] (setting [9]) were 100 nM and 220 nM, respectively. Besides, at 5-HT2C receptor [1], the “h5-HT2c Relative Efficacy” value turned out to be 56%. Moreover, the results for the Ki at 5-HT2C receptor [2] (setting [7]), on human 5-HT2B receptors (setting [8]) and on 5-HT2A receptor [4] (setting [10]) were 44 nM, 4 µM and 44 nM, respectively. Further, at 5-HT2A receptor [3], the “h5-HT2A Relative Efficacy” value is 24%.

With `Cl.O=C(SCc1ccc(OCc2ccccc2)cc1)N1CCNCC1` [Example 32, Piperazine-1-carbothioic acid S-(4-benzyloxy-benzyl) ester hydrochloride], the values for the EC50 on 5-HT2C receptor [1] (setting [6]) and on 5-HT2A receptor [3] (setting [9]) were 38 nM and 560 nM, respectively. Besides, the “h5-HT2c Relative Efficacy” value at 5-HT2C receptor [1] amounted to 65%. In addition, the Ki at 5-HT2C receptor [2] (setting [7]) was 15 nM; on human 5-HT2B receptors (setting [8]), 0.37 µM; on 5-HT2A receptor [4] (setting [10]), 6 nM. Also, on 5-HT2A receptor [3], the “h5-HT2A Relative Efficacy” value stood at 22%.

Turning to `CC(C)NC(=O)Oc1ccc(CSC(=O)N2CCNCC2)cc1` [Example 63, S-4-[(2-Propylamino)carbonyl]oxybenzyl piperazine-1-thiocarboxylate hydrochloride], the EC50 on 5-HT2C receptor [1] was 33 nM; at 5-HT2A receptor [3] it was 370 nM. On 5-HT2C receptor [1], the “h5-HT2c Relative Efficacy” value is 74%. The Ki on 5-HT2C receptor [2] was determined as 33 nM; on human 5-HT2B receptors, 8.3 µM; on 5-HT2A receptor [4] it was 550 nM. Also, the “h5-HT2A Relative Efficacy” value at 5-HT2A receptor [3] is given as 25%.

In the case of `Cc1noc(C)c1COc1cc(F)c(COC(=O)N2[C@H](C)CNC[C@@H]2C)c(F)c1` [Example 121, cis-2,6-Dimethyl-piperazine-1-carboxylic acid 4-(3,5-dimethyl-isoxazol-4-ylmethoxy)-2,6-difluoro-benzyl esterfumarate], the concentration for a half-maximal effect (EC50) at 5-HT2C receptor [1] (setting [6]) was 22 nM; on 5-HT2A receptor [3] (setting [9]), 550 nM. The “h5-HT2c Relative Efficacy” value at 5-HT2C receptor [1] was determined as 91%. The Ki on 5-HT2C receptor [2] (setting [7]) is 15 nM; on human 5-HT2B receptors (setting [8]) it was 8.4 µM; on 5-HT2A receptor [4] (setting [10]), 200 nM. For the same molecule, the “h5-HT2A Relative Efficacy” value on 5-HT2A receptor [3] is 11%.

With `Clc1cccc(N2CCNCC2)c1` [mCPP, m-chlorophenylpiperazine], the “food intake in rats” value with rats is reported as “reduce food intake”. Besides, the “appetite and body weight” value in series [5] (obese male and female subjects, subchronic treatment for a 14 day period) is “decreased the appetite and body weight”. For the same molecule, the food intake entry in series [5] (single dose, female volunteers) is given as “decreased food intake”.
